Like-named read-outs stand apart in the source and are kept apart here. Where no end group is shown, it is not given here.
What was measured:
S. aureus ATCC29213 = format: cell-based, Staphylococcus aureus
Experimental: (§1) Minimal bactericidal concentrations (MBCs) were measured using the method which has been adopted from National Committee for Clinical Laboratory Standards (NCCLS), with modifications. In short, 50 μL peptide solutions were pipetted into microtiter plates at various concentrations ranging from 1 to 128 μM. Freshly grown bacteria were added to the each well in a density of 0.5–1 × 10^6 CFUmL^−1. Microtiter plated was incubated at 37 °C for 5 h. Fifty microliters of each incubation mixture was further serially diluted (up to 10^−3 of the initial bacterial concentration), transferred on agar plates and incubated overnight. On the following day, the number of colonies was evaluated and the initial CFU/well retrospectively calculated. The minimum bactericidal concentrations (μM) were determined as the lowest concentration of the peptides that prevented more than 99.9% bacteria growth.

[1] = system: human red blood cells (hRBCs); details: red cells of human, 1 h
Experimental: (§3) The hemolytic activity of each peptide was evaluated using a modified method, as described previously[21][22]. […] Then, the collected hRBCs were washed three times with PBS (pH 7.2), centrifuged at 1000 × g for 5 min, and resuspended in PBS (final concentration, approximately 1%). Next, 50 μL of the hRBC suspension was placed into a 96-well cell culture plate with 50 μL of test peptide solution in PBS at different concentrations, and the mixture was incubated at 37 °C for 1 h. After incubation, the plate was centrifuged at 1000 × g for 5 min, the supernatant was transferred to a new 96-well cell culture plate, and the release of hemoglobin was measured by monitoring optical density (OD) at 576 nm. Untreated hRBCs suspension was used as a negative control, and the hRBCs treated with 0.1% Triton X-100 were employed as positive controls. Each test was reproduced at least 3 times using 6 replicates. Percent hemolysis was calculated using the following equation:

E. coli ATCC 25922 [2] = format: cell-based, Escherichia coli
Experimental: as §1, with “In short, 50 μL peptide solutions were pipetted into microtiter plates at various concentrations ranging from 1 to 128 μM.” left out, “growth. […] The salt sensitivity of the peptides was measured using a modified method, as described previously. […] The subsequent steps were consistent with the MBCs determination method.” for “growth.”

S. typhimurium ATCC14028 = format: cell-based, Salmonella typhimurium
Experimental: as §1

E. coli UB1005 = format: cell-based, Escherichia coli
Experimental: as §1

E. coli ATCC 25922 [3] = format: cell-based, Escherichia coli; remark: listed apart in the source
Experimental: as §1

S. epidermidis ATCC12228 = format: cell-based, Staphylococcus epidermidis; details: ATCC12228, 5 h
Experimental: In short, 50 μL peptide solutions were pipetted into microtiter plates at various concentrations ranging from 1 to 128 μM. Freshly grown bacteria were added to the each well in a density of 0.5–1 × 10^6 CFUmL^−1. Microtiter plated was incubated at 37 °C for 5 h. Fifty microliters of each incubation mixture was further serially diluted (up to 10^−3 of the initial bacterial concentration), transferred on agar plates and incubated overnight. On the following day, the number of colonies was evaluated and the initial CFU/well retrospectively calculated. The minimum bactericidal concentrations (μM) were determined as the lowest concentration of the peptides that prevented more than 99.9% bacteria growth. Each test was reproduced at least 3 times using 6 replicates.

[4] = system: 3 gram-negative strains tested; experiment: Geometric mean of MBCs and therapeutic index, gram-negative strains; format: cell-based; details: >128 counted as 256 μM; for TI (therapeutic index), gram-negative: MHC/GM for 3 gram-negative strains
Experimental: as §1, with “In” for “Minimal bactericidal concentrations (MBCs) were measured using the method which has been adopted from National Committee for Clinical Laboratory Standards (NCCLS), with modifications. In”
(§2) The therapeutic index (TI) is calculated by the ration of the minimum hemolytic concentration (MHC) to the geometric mean of the MBC (GM) to evaluate cell selectivity of peptides.

[5] = system: all of the 6 strains tested; experiment: Geometric mean of MBCs and therapeutic index, all strains; format: cell-based; details: >128 counted as 256 μM; for TI (therapeutic index), all strains: MHC/GM for all 6 strains
Experimental: as §1, with “In” for “Minimal bactericidal concentrations (MBCs) were measured using the method which has been adopted from National Committee for Clinical Laboratory Standards (NCCLS), with modifications. In”
as §2

E. coli ATCC 25922 [6] = experiment: Flow cytometry, membrane integrity by PI staining; format: cell-based, Escherichia coli; details: peptide at 1 × MBC, PI 10 μg mL^−1, 30 min at 4 °C
Experimental: The membrane damage was determined by flow cytometry. Briefly, E. coli ATCC 25922 was grown to mid-log phase in MHB at 37 °C, harvested by centrifugation at 1,000 × g for 10 min, washed thrice with PBS and diluted to 10^5 CFU mL^−1 in the same buffer. The peptides at the concentrations of 1 × MBCs were incubated with the bacterial suspension at a fixed PI concentration of 10 μg mL^−1 for 30 min at 4 °C, and followed by the removal of the unbound dye through washing with an excess of PBS. A Fluorescence Activated Cell Sorter (FACS) flow cytometer (Becton–Dickinson, USA) was used to obtain the data with a laser excitation wavelength of 488 nm.

[7] = system: 3 gram-positive strains tested; details: >128 counted as 256 μM; for TI (therapeutic index), gram-positive: MHC/GM for 3 gram-positive strains
Experimental: as §1, with “In” for “Minimal bactericidal concentrations (MBCs) were measured using the method which has been adopted from National Committee for Clinical Laboratory Standards (NCCLS), with modifications. In”
as §2

[8] = system: human red blood cells (hRBCs); experiment: Hemolytic activity; details: concentration causing 5% hemolysis of human red blood cells; about 1% hRBC in PBS, 37 °C, 1 h, OD 576 nm
Experimental: as §3

E. coli ATCC 25922 [9] = format: cell-based, Escherichia coli; details: ATCC 25922, 24 h
Experimental: The checkerboard titration method is commonly used to evaluate the synergy of different antibacterial combinations. First, 2-fold serial dilutions of the antibiotics and antimicrobial peptides were prepared. Subsequently, 50 μL each of different concentrations of antibiotics and of antimicrobial peptides was mixed and added into 100 μL of bacterial solution (containing approximately 0.5–1 × 10^6 CFU mL^−1) in each well of a 96-well plate. The plates were then incubated at 37 °C for 24 h. The subsequent steps were consistent with the MBCs determination method. The fractional inhibitory concentration (FIC) index (FICI) was calculated as follows: An FICI < 0.5 is considered to indicate synergy; 0.5 < FICI < 1.0 is considered additive; 1.0 < FICI < 4.0 is considered indifferent; and an FICI > 4.0 is considered antagonism.

[10] = system: Methicillin-resistant S. aureus ATCC 43300; details: S. aureus 43300 (methicillin-resistant); lowest concentration preventing more than 99.9% growth; 37 °C, 5 h; representative of three trials
Experimental: as §1, with “In” for “Minimal bactericidal concentrations (MBCs) were measured using the method which has been adopted from National Committee for Clinical Laboratory Standards (NCCLS), with modifications. In”

S. aureus ATCC 29213 = format: cell-based, Staphylococcus aureus; details: ATCC 29213, 5 h
Experimental: as §1, with “In short, 50 μL peptide solutions were pipetted into microtiter plates at various concentrations ranging from 1 to 128 μM.” left out, “growth. […] The salt sensitivity of the peptides was measured using a modified method, as described previously. […] The subsequent steps were consistent with the MBCs determination method.” for “growth.”

[11] = biological target: the molecule itself; experiment: FRET or BRET; FAM-labeled GG3 (donor) with TAMRA-labeled GG3 (acceptor) and unlabeled GG3, in POPG or POPC/POPG (3:1) vesicles; total peptide and FAM-peptide concentrations kept constant, mole fraction of TAMRA-peptide varied; 10 mM Tris, 150 mM NaCl, 0.1 mM EDTA, pH 7.4; excitation 492 nm; membrane-bound state

GKLWLKG-NH2 [GG1]
>128 µM: Minimum bactericidal concentration (S. aureus ATCC29213; ATCC 29213, 5 h) | MHC (minimum hemolytic concentration) [1] | MBC with FeCl3 (E. coli ATCC 25922 [2]; E. coli ATCC 25922, 4 μM FeCl3) | MBC with NH4Cl (E. coli ATCC 25922 [2]; E. coli ATCC 25922, 6 μM NH4Cl) | MBC with ZnCl2 (E. coli ATCC 25922 [2]; E. coli ATCC 25922, 8 μM ZnCl2) | MBC with MgCl2 (E. coli ATCC 25922 [2]; E. coli ATCC 25922, 1 mM MgCl2) | MBC with CaCl2 (E. coli ATCC 25922 [2]; E. coli ATCC 25922, 2 mM CaCl2) | MBC with KCl (E. coli ATCC 25922 [2]; E. coli ATCC 25922, 4.5 mM KCl) | MBC with NaCl (E. coli ATCC 25922 [2]; E. coli ATCC 25922, 150 mM NaCl) | MBC, control (E. coli ATCC 25922 [2]; E. coli ATCC 25922, without physiological salts) | Minimum bactericidal concentration (S. typhimurium ATCC14028; ATCC14028, 5 h) | Minimum bactericidal concentration (E. coli UB1005; UB1005, 5 h) | Minimum bactericidal concentration (E. coli ATCC 25922 [3]; ATCC 25922, 5 h) | Minimum bactericidal concentration (S. epidermidis ATCC12228)

AKLWLKA-NH2 [AA1]
>128 µM: Minimum bactericidal concentration (S. aureus ATCC29213; ATCC 29213, 5 h) | MHC (minimum hemolytic concentration) [1] | Minimum bactericidal concentration (S. typhimurium ATCC14028; ATCC14028, 5 h) | Minimum bactericidal concentration (E. coli UB1005; UB1005, 5 h) | Minimum bactericidal concentration (E. coli ATCC 25922 [3]; ATCC 25922, 5 h) | Minimum bactericidal concentration (S. epidermidis ATCC12228)

CC[C@H](C)[C@H](NC(=O)CN)C(=O)NCC(=O)N[C@@H](C)C(=O)N[C@H](C(=O)N[C@@H](CC(C)C)C(=O)N[C@@H](CCCCN)C(=O)N[C@H](C(=O)N[C@@H](CC(C)C)C(=O)N[C@H](C(=O)N[C@H](C(=O)NCC(=O)N[C@@H](CC(C)C)C(=O)N1CCC[C@H]1C(=O)N[C@@H](C)C(=O)N[C@@H](CC(C)C)C(=O)N[C@H](C(=O)N[C@@H](CO)C(=O)N[C@@H](Cc1c[nH]c2ccccc12)C(=O)N[C@H](C(=O)N[C@@H](CCCCN)C(=O)N[C@@H](CCCNC(=N)N)C(=O)N[C@@H](CCCCN)C(=O)N[C@@H](CCCNC(=N)N)C(=O)N[C@@H](CCC(N)=O)C(=O)N[C@@H](CCC(N)=O)C(N)=O)[C@@H](C)CC)[C@@H](C)CC)[C@@H](C)O)[C@@H](C)O)C(C)C)C(C)C [Melittin, reference compound]
2 µM: GM (geometric mean of MBCs), Gram (−) ([4]; 3 gram-negative strains) | Minimum bactericidal concentration (S. typhimurium ATCC14028; S. typhimurium 14028, lowest concentration preventing more than 99.9% growth, 37 °C, 5 h, representative of three trials) | Minimum bactericidal concentration (E. coli UB1005; E. coli 1005, lowest concentration preventing more than 99.9% growth, 37 °C, 5 h, representative of three trials) | Minimum bactericidal concentration (E. coli ATCC 25922 [3]; E. coli 25922, lowest concentration preventing more than 99.9% growth, 37 °C, 5 h, representative of three trials) | GM (geometric mean of MBCs), Gram (+, −) ([5]; all 6 strains) | GM (geometric mean of MBCs), Gram (+) ([7]; 3 gram-positive strains)
99.0%: percentage of PI-positive cells (E. coli ATCC 25922 [6])
8 µM: Minimum bactericidal concentration (S. aureus ATCC29213; S. aureus 29213, lowest concentration preventing more than 99.9% growth, 37 °C, 5 h, representative of three trials)

GKLWGLKGKLWGLKGKLWGLK-NH2 [GG3s1]
40.31: TI (therapeutic index), gram-negative [4]
128 µM: Minimum bactericidal concentration (S. aureus ATCC29213; ATCC 29213, 5 h) | Minimum bactericidal concentration (S. epidermidis ATCC12228)
16 µM: Minimum bactericidal concentration (S. typhimurium ATCC14028; ATCC14028, 5 h)
2: TI (therapeutic index), gram-positive [7]
>128 µM: MHC (minimum hemolytic concentration) [1]
8.98: TI (therapeutic index), all strains [5]
4 µM: Minimum bactericidal concentration (E. coli UB1005; UB1005, 5 h) | Minimum bactericidal concentration (E. coli ATCC 25922 [3]; ATCC 25922, 5 h)

AKLWLKAAKLWLKAAKLWLKA-NH2 [AA3]
2.52: TI (therapeutic index), all strains [5]
1 µM: MBC with KCl (E. coli ATCC 25922 [2]; ATCC 25922, 5 h) | MBC with ZnCl2 (E. coli ATCC 25922 [2]; ATCC 25922, 5 h)
2: FIC index in combination with Ciprofloxacin (E. coli ATCC 25922 [9]) | TI (therapeutic index), gram-positive [7]
1: FIC index in combination with Ceftazidime (E. coli ATCC 25922 [9]) | FIC index in combination with Chloramphenicol (E. coli ATCC 25922 [9])
8 µM: MHC (minimum hemolytic concentration) [8]
3.17: TI (therapeutic index), gram-negative [4]
2 µM: MBC with CaCl2 (E. coli ATCC 25922 [2]; ATCC 25922, 5 h) | MBC with FeCl3 (E. coli ATCC 25922 [2]; ATCC 25922, 5 h) | MBC with MgCl2 (E. coli ATCC 25922 [2]; ATCC 25922, 5 h) | MBC with NH4Cl (E. coli ATCC 25922 [2]; ATCC 25922, 5 h) | MBC with NaCl (E. coli ATCC 25922 [2]; ATCC 25922, 5 h) | MBC, control (E. coli ATCC 25922 [2]; ATCC 25922, 5 h) | Minimum bactericidal concentration (E. coli UB1005; UB1005, 5 h) | Minimum bactericidal concentration (E. coli ATCC 25922 [3]; ATCC 25922, 5 h)
4 µM: Minimum bactericidal concentration (S. aureus ATCC29213; ATCC 29213, 5 h) | Minimum bactericidal concentration [10] | Minimum bactericidal concentration (S. typhimurium ATCC14028; ATCC14028, 5 h) | MBC with CaCl2 (S. aureus ATCC 29213) | MBC with FeCl3 (S. aureus ATCC 29213) | MBC with KCl (S. aureus ATCC 29213) | MBC with MgCl2 (S. aureus ATCC 29213) | MBC with NH4Cl (S. aureus ATCC 29213) | MBC with NaCl (S. aureus ATCC 29213) | MBC with ZnCl2 (S. aureus ATCC 29213) | MBC, control (S. aureus ATCC 29213) | Minimum bactericidal concentration (S. epidermidis ATCC12228)

B1: Gly-rich centrosymmetric peptide GG3 (peptide)
peptide: GKLWLKGGKLWLKGGKLWLKG-NH2
modifications: not fully specified
notes: designed peptide from the template (y+hhh+y)n, three repeats of GKLWLKG; In the FRET experiment, FAM-labeled, TAMRA-labeled and unlabeled GG3 were mixed on lipid vesicles; also called FAM-labeled GG3; TAMRA-labeled GG3; source: synthetic peptide (GL Biochem Corporation, Shanghai)
binds: binding result [11]

Reference: publication PMC4632126, “High specific selectivity and Membrane-Active Mechanism of the synthetic centrosymmetric α-helical peptides with Gly-Gly pairs” (Scientific Reports, 2015)
